According to patent publication US20220340875A1, “METHODS OF CULTURING AND/OR EXPANDING STEM CELLS AND/OR LINEAGE COMMITTED PROGENITOR CELLS USING AMIDO COMPOUNDS” (IDEAYA BIOSCIENCES, INC., priority 2018, published 2022):

target: T1, hAhR (Homo sapiens, UniProt P35869); experiment: AhR DRE-luciferase reporter transcriptional assay, antagonist mode (TCDD-induced); assay type: cell-based; conditions: HEPG2 DRE-Luc cells, 3 nM TCDD, 24 hour incubation, relative IC50
T1 construct: Stably integrated DRE-luciferase cell lines were generated by transducing the both cell lines with Cignal XRE luciferase reporter (Qiagen) lentiviral particles; endogenous in cells
T1 sequence (P35869 11-848): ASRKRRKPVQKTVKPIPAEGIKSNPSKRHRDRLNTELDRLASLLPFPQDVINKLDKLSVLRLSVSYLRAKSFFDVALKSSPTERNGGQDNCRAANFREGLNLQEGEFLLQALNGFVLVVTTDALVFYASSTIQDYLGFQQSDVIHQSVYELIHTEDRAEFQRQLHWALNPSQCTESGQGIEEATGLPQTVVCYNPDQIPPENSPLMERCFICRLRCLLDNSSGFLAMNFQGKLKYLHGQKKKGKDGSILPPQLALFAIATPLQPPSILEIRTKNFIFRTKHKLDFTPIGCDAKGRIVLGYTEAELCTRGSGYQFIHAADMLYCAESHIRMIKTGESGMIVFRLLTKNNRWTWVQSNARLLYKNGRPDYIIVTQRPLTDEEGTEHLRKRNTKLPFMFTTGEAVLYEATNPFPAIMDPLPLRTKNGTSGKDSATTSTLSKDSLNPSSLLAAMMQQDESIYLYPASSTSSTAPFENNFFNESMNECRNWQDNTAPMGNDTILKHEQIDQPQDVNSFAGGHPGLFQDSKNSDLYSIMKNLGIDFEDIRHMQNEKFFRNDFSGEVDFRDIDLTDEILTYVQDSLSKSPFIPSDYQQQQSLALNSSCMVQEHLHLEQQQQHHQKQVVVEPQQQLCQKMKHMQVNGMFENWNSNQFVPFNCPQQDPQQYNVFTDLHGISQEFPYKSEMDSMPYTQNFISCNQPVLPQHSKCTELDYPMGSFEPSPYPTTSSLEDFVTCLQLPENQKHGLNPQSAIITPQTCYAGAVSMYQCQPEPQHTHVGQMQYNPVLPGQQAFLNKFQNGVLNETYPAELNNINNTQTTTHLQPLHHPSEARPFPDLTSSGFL
In short: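 HepG2 cells carrying a stably integrated DRE-luciferase reporter, in OptiMEM with 0.5% FBS; semi-log compound doses added with 3 nM TCDD, 24 h incubation, firefly luciferase read-out. Percent maximal activity normalised between vehicle ± TCDD; relative IC50 taken as half-reduction between curve plateaus.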

SMILES	IC50 [nM]
Cc1cc(-c2ccc3cc(F)ccc3n2)ccc1NC(=O)c1cccnn1 [Example 031, N-(4-(6-fluoroquinolin-2-yl)-2-methylphenyl)pyridazine-3-carboxamide]	500 to 1000
Cc1cc(-c2ncc3cc(C(F)(F)F)ccc3n2)ccc1NC(=O)c1c(C)cnn1C [Example 215, 1,4-dimethyl-N-(2-methyl-4-(6-(trifluoromethyl)quinazolin-2-yl)phenyl)-1H-pyrazole-5-carboxamide]	< 200
Cc1cc(-c2ccc3nc(C(F)(F)F)ncc3n2)ccc1NC(=O)c1ccnn1C [Example 139, 1-methyl-N-(2-methyl-4-(2-(trifluoromethyl)pyrido[3,2-d]pyrimidin-6-yl)phenyl)-1H-pyrazole-5-carboxamide]	500 to 1000
Cc1c(N(C)C(=O)c2ccnn2C)ccc(-c2ncc3nc(C(F)(F)F)cc(C)c3n2)c1F [Example 175, N-(3-fluoro-2-methyl-4-(8-methyl-6-(trifluoromethyl)pyrido[3,2-d]pyrimidin-2-yl)phenyl)-N,1-dimethyl-1H-pyrazole-5-carboxamide]	< 200
COC(=O)N(C)c1ccc(-c2ncc3cc(C(F)(F)F)ccc3n2)cc1C [Example 128, methyl methyl(2-methyl-4-(6-(trifluoromethyl)quinazolin-2-yl)phenyl)carbamate]	< 200
Cc1cc(C(F)(F)F)nc2cnc(-c3ccc(N(C)C(=O)c4ccnn4C)c(F)c3)nc12 [Example 162, N-(2-fluoro-4-(8-methyl-6-(trifluoromethyl)pyrido[3,2-d]pyrimidin-2-yl)-phenyl)-N,1-dimethyl-1H-pyrazole-5-carboxamide]	< 200
Cc1cc(-c2ccc3cc(F)ccc3n2)ccc1NC(=O)c1nccn1C [Example 033, N-(4-(6-fluoroquinolin-2-yl)-2-methylphenyl)-1-methyl-1H-imidazole-2-carboxamide]	200 to 500

Further lines, results first:

IC50 [nM]	SMILES
< 200	Cc1c(-c2ncc3nc(C(F)(F)F)cc(C)c3n2)ccc(N(C)C(=O)c2ccnn2C)c1F [Example 177, N-(2-fluoro-3-methyl-4-(8-methyl-6-(trifluoromethyl)pyrido[3,2-d]pyrimidin-2-yl)phenyl)-N,1-dimethyl-1H-pyrazole-5-carboxamide]
< 200	Cc1cc(-c2ccc3cc(C(F)(F)F)ccc3n2)ccc1N(C)C(=O)c1ccnn1C [Example 002, N,1-Dimethyl-N-(2-methyl-4-(6-(trifluoromethyl)quinolin-2-yl)phenyl)-1H-pyrazole-5-carboxamide]
< 200	Cc1cc(-c2ccc3nc(C(F)(F)F)cc(C)c3n2)ccc1N(C)C(=O)c1ccnn1CCO [Example 223, 1-(2-hydroxyethyl)-N-methyl-N-[2-methyl-4-[8-methyl-6-(trifluoromethyl)-1,5-naphthyridin-2-yl]phenyl]-1H-pyrazole-5-carboxamide]
< 200	CNC(=O)c1cc(C(=O)Nc2ccc(-c3ncc4nc(C(F)(F)F)cc(C)c4n3)cc2C)ccn1 [Example 167, N2-methyl-N4-(2-methyl-4-(8-methyl-6-(trifluoromethyl)pyrido[3,2-d]pyrimidin-2-yl)phenyl)pyridine-2,4-dicarboxamide]
< 200	Cc1cc(-c2ncc3cc(C(F)(F)F)ccc3n2)ccc1N(C)C(=O)c1cc(C(N)=O)nn1C [Example 222, N5,1-dimethyl-N5-(2-methyl-4-(6-(trifluoromethyl)quinazolin-2-yl)phenyl)-1H-pyrazole-3,5-dicarboxamide]
